Data taken from patent US9273338B2, “Chimeric avian-based screening system containing mammalian grafts” (priority 2004, dated 2016).

How the values were obtained:
[1] = tested on: human skin grafted onto the CAM of a fertilized egg; test: Human skin irritation quantified with the skin-CAM system; type: in vivo
Protocol: FIGS. 2B and 2C quantitate the change in epidermal thickness of CAM-grafted and organ culture-maintained human skin. Epidermal thickness was measured using digital photos, by tracing the epidermis with a digitizing pad and determining area using the public domain scientific imaging software ImageJ (http://rsb.info.nih.gov/ij/). Size bars represent 0.05 mm
Punch biopsies of human skin were grafted onto the CAM of a fertilized egg as described in Example 1. The human skin samples were allowed to incubate for 2 days after grafting in order to allow for the skin to incorporate, and then the adhesive tape sealing of the samples was reopened. The detergent sodium dodecylsulfate (SDS) was applied to different skin samples at different concentrations topically using a small plastic ring cut from a pipette tip keep the irritant in place. The skin samples were then resealed and returned to the incubator for an addition three days, whereupon they underwent routine histological and immunochemical analysis using Abs for the proliferation marker PCNA. PCNA^+ cells were counted in several sections, and the length of the epidermis in the section measured. Results are expressed as PCNA^+ cells/mm.

[2] = tested on: Langerhans cells (LC) in human skin explants cultivated on the CAM; test: Activation and mobilization of Langerhans cells in human skin grafts on the CAM (CD1a staining); type: in vivo
Protocol: Excess fat was manually removed from human skin obtained within 2 hours of surgery. The skin was cut into rectangular/square pieces approximately 7-10 mm on each side and stored on a cold plate at 15° C. in saline. Eggs with an artificial air sac were opened with iris scissors in a sterile hood. The ectodermal surface of the CAM was abraded by touching it briefly with a sterile piece of lens tissue to improve the adherence of the graft. The skin was then gently place on the CAM and stretched out. The eggs were then sealed with scotch tape, and returned to the incubator.
Two-three days after grafting the skin, the eggs were re-opened, and the grafts are evaluated visually for viability. Eggs containing skin that has yellowed or that looks obviously infected were discarded. A plastic ring just smaller than the skin was placed on the graft in order to prevent leakage of the test substance away from the skin, using Vaseline to seal it down. Then, a 50 μl drop of the tested substance was placed on the skin, and the egg was re-sealed and incubated for another 6 hours-5 days. At the end of the re-incubation, the skin was removed from the CAM and prepared for paraffin histology. […]
All the microscopic 400 μm-fields in triplicate sections from each skin sample were counted with a 40× objective. The average number of cells per field was then determined and averaged for that skin sample. […]

Q: `CCCCCCCCCCCCOS(=O)(=O)[O-].[Na+]` [SDS, sodium dodecylsulfate] was tested. Which epidermal thickness ([1]; topical SDS treatment, FIG. 3B) did it give?
A: Its epidermal thickness is “no significant differences in epidermal thickness”.

Q: What about the “epidermal proliferation (PCNA+ cells/mm)” value ([1]; topical SDS, 1% and 2.5% produce similar results, 3 days after treatment, p<0.05, FIG. 3A) of the same molecule?
A: Its value is “significantly increases epidermal proliferation”.

Q: For `O=[N+]([O-])c1ccc(F)c([N+](=O)[O-])c1` [DNFB, dinitrofluorobenzene], which “CD1a+ LC in the epidermis” value ([2]; overnight (O/N) incubation, compared to untreated skin fixed immediately or O/N acetone/olive oil (solvent) treated skin, FIG. 9) is on record?
A: The value was “significant decrease”.

B1: LT: lymphotoxin (LT) (protein, UniProt P01374 35-205, looked up)
Lymphotoxin-alpha: LPGVGLTPSAAQTARQHPKMHLAHSTLKPAAHLIGDPSKQNSLLWRANTDRAFLQDGFSLSNNSLLVPTSGIYFVYSQVVFSGKAYSPKATSSPLYLAHEVQLFSSQYPFHVPLLSSQKMVYPGLQEPWLHSMYHGAAFQLTQGDQLSTHTDGIPHLVLSPSTVFFGAFAL
Q: With B1 as the molecule, how does the “number of CD1a+ LC in epidermis” value ([2]; LT-treated skin grafts, FIG. 10) read?
A: Its value is “clear decrease”.
